{
  "source": "patent US10683287B2",
  "about": "“Heterocyclic derivatives and their use in the treatment of neurological disorders” (Novartis AG, priority 2011, dated 2020)",
  "note": "Structures can show the parent of a compound that is named as a salt.",
  "data": [
    {"system": "Cellular Release of Amyloid Peptide 1-40", "assay": "Test 4: Inhibition of Cellular Release of Amyloid Peptide 1-40", "format": "cell-based, Chinese hamster", "conditions": "Cricetulus griseus, 24 h; read-out: Amyloid-β1-40 release IC50", "description": "Chinese hamster ovary cells are transfected with the human gene for amyloid precursor protein. The cells are plated at a density of 8000 cells/well into 96-well microtiter plates and cultivated for 24 hours in DMEM cell culture medium containing 10% FCS. The test compound is added to the cells at various concentrations, and the cells are cultivated for 24 hours in the presence of the test compound.", "units": {"IC50": "nM"}, "values": [
      {"smiles": "C[C@]1(c2cccc(NC(=O)c3ccc(C#N)cn3)n2)CO[C@@](C)(C(F)(F)F)C(N)=N1", "note": "[Example 9, 5-Cyano-pyridine-2-carboxylic acid [6-((3S,6R)-5-amino-3,6-dimethyl-6-trifluoromethyl-3,6-dihydro-2H-[1,4]oxazin-3-yl)-pyridin-2-yl]-amide]", "IC50": 1900},
      {"smiles": "NC1=NC(CF)(c2cccc(NC(=O)c3ccc(Cl)cn3)n2)COC1", "note": "(centres unmarked) [Example 3, 5-{6-[(5-Chloro-pyridine-2-carbonyl)-amino]-pyridin-2-yl}-5-fluoromethyl-5,6-dihydro-2H-[1,4]oxazin-3-yl-ammonium Trifluoro Acetate]", "IC50": 140},
      {"smiles": "Cc1cc(C#N)cnc1C(=O)Nc1ccc(F)c([C@@]2(C(F)F)COCC(N)=N2)n1", "note": "[Example 39, 5-Cyano-3-methyl-pyridine-2-carboxylic acid [6-((S)-5-amino-3-difluoromethyl-3,6-dihydro-2H-[1,4]oxazin-3-yl)-5-fluoro-pyridin-2-yl]-amide]", "IC50": 290},
      {"smiles": "NC1=NC(CF)(c2cccc(NC(=O)c3ccc(Br)cn3)n2)COC1", "note": "(centres unmarked) [Example 4, 5-Bromo-pyridine-2-carboxylic acid [6-(5-amino-3-fluoromethyl-3,6-dihydro-2H-[1,4]oxazin-3-yl)-pyridin-2-yl]-amide]", "IC50": 98},
      {"smiles": "C[C@@]1(c2nc(NC(=O)c3ncc(OCCCF)nc3N)ccc2F)CO[C@@](C)(C(F)(F)F)C(N)=N1", "note": "[Example 42, 3-Amino-5-(3-fluoro-propoxy)-pyrazine-2-carboxylic acid [6-((3R,6R)-5-amino-3,6-dimethyl-6-trifluoromethyl-3,6-dihydro-2H-[1,4]oxazin-3-yl)-5-fluoro-pyridin-2-yl]amide]", "IC50": 72},
      {"smiles": "[2H]c1nc(C(=O)Nc2cccc([C@]3(C)CO[C@@](C)(C(F)(F)F)C(N)=N3)n2)c(C([2H])([2H])[2H])c([2H])c1Cl", "note": "[Example 21, 5-Chloro-4,6-dideuterio-3-trideuteriomethyl-pyridine-2-carboxylic acid [6-((3R,6R)-5-amino-3,6-dimethyl-6-trifluoromethyl-3,6-dihydro-2H-[1,4]oxazin-3-yl)-pyridin-2-yl]-amide]", "IC50": 110},
      {"smiles": "COc1cnc(C(=O)Nc2ccc(F)c([C@]3(C)CO[C@@](C)(C(F)(F)F)C(N)=N3)n2)c(C)c1", "note": "[Example 25, 5-Methoxy-3-methyl-pyridine-2-carboxylic acid [6-((3R,6R)-5-amino-3,6-dimethyl-6-trifluoromethyl-3,6-dihydro-2H-[1,4]oxazin-3-yl)-5-fluoro-pyridin-2-yl]amide]", "IC50": 76},
      {"smiles": "C[C@@]1(c2cccc(NC(=O)c3ncc(C#N)cc3Cl)n2)CO[C@@](C)(C(F)(F)F)C(N)=N1", "note": "[Example 20, 3-Chloro-5-cyano-pyridine-2-carboxylic acid [6-((3R,6R)-5-amino-3,6-dimethyl-6-trifluoromethyl-3,6-dihydro-2H-[1,4]oxazin-3-yl)-pyridin-2-yl]-amide]", "IC50": 5},
      {"smiles": "C[C@@]1(c2cccc(NC(=O)c3ccc(C#N)cn3)n2)CO[C@@](C)(C(F)(F)F)C(N)=N1", "note": "[Example 10, 5-Cyano-pyridine-2-carboxylic acid [6-((3R,6R)-5-amino-3,6-dimethyl-6-trifluoromethyl-3,6-dihydro-2H-[1,4]oxazin-3-yl)-pyridin-2-yl]-amide]", "IC50": 17},
      {"smiles": "Cc1cc(C#N)cnc1C(=O)Nc1cc([C@@]2(C)CO[C@@](C)(C(F)(F)F)C(N)=N2)c(F)cn1", "note": "[Example 17, 5-Cyano-3-methyl-pyridine-2-carboxylic acid [4-((3S,6R)-5-amino-3,6-dimethyl-6-trifluoromethyl-3,6-dihydro-2H-[1,4]oxazin-3-yl)-5-fluoro-pyridin-2-yl]-amide]", "IC50": 4800},
      {"smiles": "Cc1cnc(C(=O)Nc2ccc(F)c([C@]3(C)CO[C@@](C)(C(F)(F)F)C(N)=N3)n2)c(C)n1", "note": "[Example 41, 3,5-Dimethyl-pyrazine-2-carboxylic acid [6-((3R,6R)-5-amino-3,6-dimethyl-6-trifluoromethyl-3,6-dihydro-2H-[1,4]oxazin-3-yl)-5-fluoro-pyridin-2-yl]amide]", "IC50": 161},
      {"smiles": "Cc1cnc(C(=O)Nc2ccc(F)c([C@]3(C)CO[C@@](C)(C(F)(F)F)C(N)=N3)n2)cn1", "note": "[Example 33, 5-Methyl-pyrazine-2-carboxylic acid [6-((3R,6R)-5-amino-3,6-dimethyl-6-trifluoromethyl-3,6-dihydro-2H-[1,4]oxazin-3-yl)-5-fluoro-pyridin-2-yl]amide]", "IC50": 130},
      {"smiles": "Cc1cc(C#N)cnc1C(=O)Nc1cccc(C2(CF)COCC(N)=N2)n1", "note": "(centres unmarked) [Example 5, 5-Cyano-3-methyl-pyridine-2-carboxylic acid [6-(5-amino-3-fluoromethyl-3,6-dihydro-2H-[1,4]oxazin-3-yl)-pyridin-2-yl]-amide]", "IC50": 40},
      {"smiles": "C[C@@]1(c2cccc(NC(=O)c3ncc(Br)cc3Cl)n2)CO[C@@](C)(C(F)(F)F)C(N)=N1", "note": "[Example 22, 5-Bromo-3-chloro-pyridine-2-carboxylic acid [6-((3R,6R)-5-amino-3,6-dimethyl-6-trifluoromethyl-3,6-dihydro-2H-[1,4]oxazin-3-yl)-pyridin-2-yl]-amide]", "IC50": 29},
      {"smiles": "NC1=NC(CF)(c2cc(NC(=O)c3ccc(Br)cn3)cnc2Cl)COC1", "note": "(centres unmarked) [Example 18, 5-Bromo-pyridine-2-carboxylic acid [5-(5-amino-3-fluoromethyl-3,6-dihydro-2H-[1,4]oxazin-3-yl)-6-chloro-pyridin-3-yl]-amide hydrochloride]", "IC50": 15},
      {"smiles": "Cc1cc(OC(F)F)cnc1C(=O)Nc1ccc(F)c([C@]2(C)CO[C@@](C)(C(F)(F)F)C(N)=N2)n1", "note": "[Example 29, 5-Difluoromethoxy-3-methyl-pyridine-2-carboxylic acid [6-((3R,6R)-5-amino-3,6-dimethyl-6-trifluoromethyl-3,6-dihydro-2H-[1,4]oxazin-3-yl)-5-fluoro-pyridin-2-yl]amide]", "IC50": 24},
      {"smiles": "C[C@@]1(c2cc(NC(=O)c3ncc(C#N)cc3Cl)ncc2F)CO[C@@](C)(C(F)(F)F)C(N)=N1", "note": "[Example 35, 3-Chloro-5-cyano-pyridine-2-carboxylic acid [4-((3R,6R)-5-amino-3,6-dimethyl-6-trifluoromethyl-3,6-dihydro-2H-[1,4]oxazin-3-yl)-5-fluoro-pyridin-2-yl]-amide]", "IC50": 140},
      {"smiles": "N#Cc1cnc(C(=O)Nc2ccc(F)c([C@]3(C(F)F)COCC(N)=N3)n2)c(Cl)c1", "note": "[Example 40, 3-Chloro-5-cyano-pyridine-2-carboxylic acid [6-((R)-5-amino-3-difluoromethyl-3,6-dihydro-2H-[1,4]oxazin-3-yl)-5-fluoro-pyridin-2-yl]-amide]", "IC50": 12},
      {"smiles": "Cc1cc(C#N)cnc1C(=O)Nc1cccc([C@]2(C)CO[C@@](C)(C(F)(F)F)C(N)=N2)n1", "note": "[Example 8, 5-Cyano-3-methyl-pyridine-2-carboxylic Acid [6-((3R,6R)-5-amino-3,6-dimethyl-6-trifluoro-methyl-3,6-dihydro-2H-[1,4]oxazin-3-yl)-pyridin-2-yl]-amide]", "IC50": 6},
      {"smiles": "[2H]c1nc(C(=O)Nc2cc(C3(CF)COCC(N)=N3)ccn2)c(C([2H])([2H])[2H])c([2H])c1Cl", "note": "(centres unmarked) [Example 13, 5-{2-[(5-Chloro-4,6-dideuterio-3-trideuteromethyl-pyridine-2-carbonyl)-amino]-pyridin-4-yl}-5-fluoromethyl-5,6-dihydro-2H-[1,4]oxazin-3-yl-ammonium Acetate]", "IC50": 550}
    ]}
  ]
}
